From PubChem BioAssay AID330 (DTP/NCI, 2004)
Several values for one entry are separate records, joined by “and”; a condition that tells them apart may be missing. Equal values may be shown once. Toxic doses and inconclusive results are not listed. The calls were made as follows: active = survival T/C of 150% or more; inactive = T/C below 125% in these data.

Test system: P388 leukemia ip, CD2F1 mice, survival T/C
Assay: NCI In Vivo Anticancer Drug Screen. Data for tumor model P388 Leukemia (intraperitoneal) in CD2F1 (CDF1) mice
Details: endpoint: median survival time, higher = longer survival
Procedure, shortened: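 Mice carrying the transplanted tumor received test compound or vehicle. Survival was recorded in each group, and the value is the treated-group measurement divided by that of the vehicle-treated control group.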

[1] = dose: 25.0 mg/kg/injection, schedule: Q01DX005 (ip), vehicle: saline with Tween-80
[2] = dose: 50.0 mg/kg/injection, schedule: Q01DX005 (ip), vehicle: saline with Tween-80
[3] = dose: 50.0 mg/kg/injection, schedule: Q01DX005 (ip), vehicle: saline
[4] = dose: 100.0 mg/kg/injection, schedule: Q01DX005 (ip), vehicle: saline
[5] = dose: 200.0 mg/kg/injection, schedule: Q01DX005 (ip), vehicle: saline
[6] = dose: 50.0 mg/kg/injection, schedule: Q01DX009 (ip), vehicle: saline with Tween-80
[7] = dose: 100.0 mg/kg/injection, schedule: Q01DX009 (ip), vehicle: saline with Tween-80
[8] = dose: 200.0 mg/kg/injection, schedule: Q01DX009 (ip), vehicle: saline with Tween-80
[9] = dose: 100.0 mg/kg/injection, schedule: Q04DX003 (ip), vehicle: Klucel (hydroxypropylcellulose) (HPC)
[10] = dose: 200.0 mg/kg/injection, schedule: Q04DX003 (ip), vehicle: Klucel (hydroxypropylcellulose) (HPC)
[11] = dose: 400.0 mg/kg/injection, schedule: Q04DX003 (ip), vehicle: Klucel (hydroxypropylcellulose) (HPC)
[12] = dose: 60.0 mg/kg/injection, schedule: Q01DX005 (ip), vehicle: saline with Tween-80
[13] = dose: 120.0 mg/kg/injection, schedule: Q01DX005 (ip), vehicle: saline with Tween-80

Measured: T/C

CN1CCC2(CC1)OCCCO2
inactive: [1] 102 % of control | [2] 94 % of control | [3] 99 % of control | dose: 75.0 mg/kg/injection, schedule: Q01DX001 (ip), vehicle: saline with Tween-80 105 % of control | dose: 100.0 mg/kg/injection, schedule: Q01DX005 (ip), vehicle: saline with Tween-80 100 % of control and 88 % of control | [4] 96 % of control | dose: 125.0 mg/kg/injection, schedule: Q01DX001 (ip), vehicle: saline with Tween-80 101 % of control | [5] 102 % of control | dose: 250.0 mg/kg/injection, schedule: Q01DX001 (ip), vehicle: saline with Tween-80 93 % of control

O=C1OC(=O)C2=C1CCC2
inactive: dose: 12.5 mg/kg/injection, schedule: Q01DX009 (ip), vehicle: distilled water + Tween-80 100 % of control | dose: 25.0 mg/kg/injection, schedule: Q01DX009 (ip), vehicle: distilled water + Tween-80 100 % of control | dose: 50.0 mg/kg/injection, schedule: Q01DX009 (ip), vehicle: distilled water + Tween-80 91 % of control

Cc1ccc(C2(C)OC(CCl)CS2)c(C)c1 (stereo not drawn)
inactive: dose: 25.0 mg/kg/injection, schedule: Q01DX009 (ip), vehicle: saline with Tween-80 101 % of control and 98 % of control | [6] 104 % of control and 98 % of control | [7] 105 % of control | [8] 107 % of control and 119 % of control

CC(C)(C)N=C(CCN1CCCCC1)Nc1ccc(Cl)cc1
inactive: [6] 113 % of control | [7] 112 % of control | [8] 111 % of control

CC(NC(=O)OCc1ccccc1)C(=O)NC(CCC(=O)O)C(=O)O (stereo not drawn)
inactive: [3] 97 % of control | [4] 101 % of control | [5] 106 % of control

CCCn1c2nc(=O)[nH]c(=O)c-2[n+]([O-])c2ccccc21
inactive: dose: 6.25 mg/kg/injection, schedule: Q01DX001 (ip), vehicle: saline with Tween-80 97 % of control | dose: 12.5 mg/kg/injection, schedule: Q01DX001 (ip), vehicle: saline with Tween-80 98 % of control

NC(=O)c1ccc(=S)[nH]c1
inactive: dose: 12.5 mg/kg/injection, schedule: Q01DX009 (ip), vehicle: Klucel (hydroxypropylcellulose) (HPC) 106 % of control | dose: 25.0 mg/kg/injection, schedule: Q01DX009 (ip), vehicle: Klucel (hydroxypropylcellulose) (HPC) 103 % of control | dose: 50.0 mg/kg/injection, schedule: Q01DX009 (ip), vehicle: Klucel (hydroxypropylcellulose) (HPC) 97 % of control | dose: 100.0 mg/kg/injection, schedule: Q01DX009 (ip), vehicle: Klucel (hydroxypropylcellulose) (HPC) 103 % of control

CCCCCCCCSCCN(CC)CC
inactive: [3] 104 % of control | [4] 103 % of control | [5] 95 % of control

CC1=NN(C(=O)c2ccncc2)C(=O)C1N=Nc1ccc(S(=O)(=O)Nc2ccccn2)cc1 (stereo not drawn)
inactive: [6] 92 % of control | [7] 90 % of control | [8] 103 % of control

CNC(=S)N/N=C/CCCC/C=N/NC(=S)NC
inactive: dose: 100.0 mg/kg/injection, schedule: Q01DX001 (ip), vehicle: saline 96 % of control | dose: 200.0 mg/kg/injection, schedule: Q01DX001 (ip), vehicle: saline 96 % of control | dose: 400.0 mg/kg/injection, schedule: Q01DX001 (ip), vehicle: saline 101 % of control

C1CC[N-]CC1.C1CC[N-]CC1.N#C[S-].N#C[S-].[Cu]
inactive: dose: 1.25 mg/kg/injection, schedule: Q04DX003 (ip), vehicle: saline with Tween-80 100 % of control | dose: 2.5 mg/kg/injection, schedule: Q04DX003 (ip), vehicle: saline with Tween-80 100 % of control | dose: 5.0 mg/kg/injection, schedule: Q04DX003 (ip), vehicle: saline with Tween-80 90 % of control | dose: 10.0 mg/kg/injection, schedule: Q04DX003 (ip), vehicle: saline with Tween-80 90 % of control

C=C1C[C@@H]2[C@H](C1=O)[C@@H]1CC[C@H]3O[C@]31C2(C)C
inactive: dose: 50.0 mg/kg/injection, schedule: Q04DX002 (ip), vehicle: Klucel (hydroxypropylcellulose) (HPC) 106 % of control | dose: 100.0 mg/kg/injection, schedule: Q04DX002 (ip), vehicle: Klucel (hydroxypropylcellulose) (HPC) 101 % of control | dose: 200.0 mg/kg/injection, schedule: Q04DX002 (ip), vehicle: Klucel (hydroxypropylcellulose) (HPC) 100 % of control

CC(N)CN1CC(C)N=C1c1ccncc1 (stereo not drawn)
inactive: dose: 50.0 mg/kg/injection, schedule: Q01DX009 (ip), vehicle: saline 102 % of control | dose: 100.0 mg/kg/injection, schedule: Q01DX009 (ip), vehicle: saline 98 % of control | dose: 200.0 mg/kg/injection, schedule: Q01DX009 (ip), vehicle: saline 99 % of control

C1CSCCSCCSCCS1
inactive: [9] 100 % of control | [10] 100 % of control | [11] 101 % of control

C(#Cc1c2ccccc2c(C#Cc2ccccc2)c2c1oc1c3ccccc3ccc12)c1ccccc1
inactive: dose: 100.0 mg/kg/injection, schedule: Q04DX003 (ip), vehicle: saline with Tween-80 97 % of control | dose: 200.0 mg/kg/injection, schedule: Q04DX003 (ip), vehicle: saline with Tween-80 97 % of control | dose: 400.0 mg/kg/injection, schedule: Q04DX003 (ip), vehicle: saline with Tween-80 92 % of control

Nc1nc2cc([N+](=O)[O-])cnc2s1
inactive: [9] 103 % of control | [10] 101 % of control | [11] 100 % of control

CCN(CC)CCC(CNc1c2ccc(Cl)cc2nc2ccc(OC)cc12)c1ccccc1 (stereo not drawn)
inactive: dose: 12.5 mg/kg/injection, schedule: Q01DX005 (ip), vehicle: saline with Tween-80 98 % of control | [1] 100 % of control | [2] 108 % of control and 115 % of control

O=C1NC(=O)C(Cc2ccccc2)(Cc2ccccc2)S1
inactive: [12] 100 % of control | [13] 103 % of control | dose: 240.0 mg/kg/injection, schedule: Q01DX005 (ip), vehicle: saline with Tween-80 96 % of control

Oc1ccc(C[n+]2ccccc2)cc1O
inactive: dose: 3.12 mg/kg/injection, schedule: Q01DX005 (ip), vehicle: saline 101 % of control and 97 % of control | dose: 6.25 mg/kg/injection, schedule: Q01DX005 (ip), vehicle: saline 102 % of control and 103 % of control | dose: 12.5 mg/kg/injection, schedule: Q01DX005 (ip), vehicle: saline 100 % of control and 105 % of control | dose: 25.0 mg/kg/injection, schedule: Q01DX005 (ip), vehicle: saline 92 % of control and 97 % of control

CCOC(=O)C(Cc1ccc(O)cc1)NC(=O)c1cc2c(cn1)[nH]c1ccccc12 (stereo not drawn)
inactive: [12] 101 % of control | [13] 117 % of control
